The nature of series [1]: Cmax in Sprague-Dawley rat at 1 mg/kg, iv measured for 0.083 to 24 hrs by LC-MS/MS analysis. Conditions: in vivo, time 0.083-24 hrs. Format: ADME, organism-based.
Series [2] concerns Human immunodeficiency virus 1. The series is described as follows: Antiviral activity against drug-resistant HIV-1 harboring RT RES056 mutant infected in human MT4 cells assessed as protection against virus-induced cytopathicity measured after 5 days post-infection by MTT assay. Format: functional, organism-based. The conditions noted are these: Human immunodeficiency virus 1, MT4, 120 h. A general note: Protection from cytopathic effect is a common read-out in antiviral testing.

Series [3] is described as follows: Acute toxicity in ICR mouse assessed as pathological change in brain at 2000 mg/kg, IG measured for 14 days by H and E staining based analysis. Format: organism-based. The conditions noted are these: in vivo, po, 336 h, time 14 day.
Series [4] can be described thus: Acute toxicity in ICR mouse assessed as pathological change in liver at 2000 mg/kg, IG measured for 14 days by H and E staining based analysis. Format: organism-based. The conditions noted are these: in vivo, po, 336 h, time 14 day.
Series [5] in a line: Half life in Sprague-Dawley rat at 10 mg/kg, po measured for 0.083 to 24 hrs by LC-MS/MS analysis. Format: ADME, organism-based. The conditions noted are these: in vivo, time 0.083-24 hrs.

For orientation: Cmax means the highest concentration seen after dosing. One may read the EC50 as the midpoint of the concentration-response curve. One may read the half-life as the time needed for the level to fall by half in the phase considered. A high value points to slow decline. For the molecule `[2H]C([2H])([2H])c1cc(C#N)cc(C([2H])([2H])[2H])c1Oc1nc(NC2CCN(Cc3ccc(S(N)(=O)=O)cc3)CC2)nc2ccsc12`, the concentration in series [1] peaked (Cmax) at 1240 ng/mL. Also, the EC50 in series [2] came out at 75.1 nM. Besides, the Activity result in series [3] and in series [4] was “Non-toxic” in each case. Further, in series [5], the half-life was 1.58 h.

Values taken from ChEMBL document CHEMBL6134848, “Deuteration Strategy-Inspired Design of Novel Diarylpyrimidine Derivatives as Potent Non-Nucleoside Reverse Transcriptase Inhibitors Featuring Improved Efficacy, Selectivity, and Druggability” (J Med Chem, 2025).
